Key:
[1] = Lipophilicity, log D by shake-flask method (1-octanol/PBS pH 7.4); assay type: physicochemical; details: shake-flask, Table 17, mean ± SD
Summary of the method: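 Radiotracer shaken 30 min in pre-saturated 1-octanol/PBS pH 7.4 (1:1), then centrifuged for phase separation. Radioactivity in each phase measured by gamma counting; log D reported as the average log of organic/PBS activity ratio.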

LNCaP xenografts [2] = experiment: Quantitative biodistribution in LNCaP xenografted mice; assay type: in vivo; details: for kidney uptake: 1h p.i.
LNCaP xenografts [3] = experiment: PET/CT imaging in LNCaP xenografted mice; assay type: in vivo; details: LNCaP-xenografted nude mice
Method: Tumor xenografted mice were injected intravenously into the tail vein with the tested radiotracer. […] Mice were anesthetized with 1.5% isoflurane and dynamic PET scans were acquired during 1 hour upon injection of the radiotracer. The mice were euthanized by CO2 at 4 hours p.i., the bladder was mechanically emptied, and static PET scans were acquired for 30 min. PET images were acquired using the R-CUBE PET scanner system (MOLECUBES, Gent, Belgium) and they were decay corrected and reconstructed with the VivoQuant software version 4.0. The CT was imaged supine, headfirst, using the NanoSPECT/CT™ scanner (Bioscan Inc.). Topograms and helical CT scans of the whole mouse were first acquired using the following parameters: X-ray tube current: 177 μA, X-ray tube voltage 45 kVp, 90 seconds and 180 frames per rotation, pitch 1. CT images were reconstructed using CTReco (version r1.146), with a standard filtered back projection algorithm (exact cone beam) and post-filtered (RamLak, 100% frequency cut-off), resulting in a pixel size of 0.2 mm. Co-registered PET/CT images were visualized using maximum intensity projection (MIP) with InVivoScope (version 1.43, Bioscan Inc.). The results are presented in the Examples that follow.

PSMA = PSMA (Homo sapiens (Human), UniProt Q04609); experiment: Specificity study: PET/CT in LNCaP xenografts after blocking with 2-PMPA, and free [61Cu]CuCl2; assay type: in vivo, mice; details: PET/CT 1 hour p.i.
Chain of PSMA (Q04609 whole entry): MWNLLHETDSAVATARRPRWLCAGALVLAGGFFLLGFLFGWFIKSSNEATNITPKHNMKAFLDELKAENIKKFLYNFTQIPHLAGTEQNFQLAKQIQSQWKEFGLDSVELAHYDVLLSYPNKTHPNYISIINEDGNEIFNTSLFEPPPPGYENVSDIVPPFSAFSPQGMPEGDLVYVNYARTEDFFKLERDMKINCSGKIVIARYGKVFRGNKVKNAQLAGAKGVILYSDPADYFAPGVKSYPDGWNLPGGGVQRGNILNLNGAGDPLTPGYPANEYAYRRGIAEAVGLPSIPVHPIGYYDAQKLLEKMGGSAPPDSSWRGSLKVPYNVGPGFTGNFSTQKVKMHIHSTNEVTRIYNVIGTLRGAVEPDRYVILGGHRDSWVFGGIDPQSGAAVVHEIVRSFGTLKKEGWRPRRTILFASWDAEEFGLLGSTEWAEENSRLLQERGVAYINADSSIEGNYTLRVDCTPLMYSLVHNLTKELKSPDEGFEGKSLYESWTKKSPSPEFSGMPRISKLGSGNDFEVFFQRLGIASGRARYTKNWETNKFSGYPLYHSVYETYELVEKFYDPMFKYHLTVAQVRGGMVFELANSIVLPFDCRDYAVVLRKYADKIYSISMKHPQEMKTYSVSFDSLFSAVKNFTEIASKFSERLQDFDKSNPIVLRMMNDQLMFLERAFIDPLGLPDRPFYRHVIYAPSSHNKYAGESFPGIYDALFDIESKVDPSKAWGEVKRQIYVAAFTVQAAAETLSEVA
Method: The specificity of [^61Cu]Cu-NODAGA-PSMA-I&T and [^61Cu]Cu-DOTAGA-PSMA-I&T was assessed in LNCaP xenografted mice, firstly injected with 1.3 μmol (300 μg) of 2-Phosphonomethyl pentanedioic acid (2-PMPA) as the blocking agent, followed by the injection of the radiotracer e.g. [^61Cu]Cu-DOTAGA-PSMA-I&T (100 μL/[…]/4-8 MBq) or [^61Cu]Cu-NODAGA-PSMA-I&T (100 μL/[…]/4-8 MBq). One-hour post injection PET/CT images were acquired as described in Example 8. In addition, PET/CT image of xenografts after injection of [^61Cu]CuCl2 (100 μL/7 MBq) was acquired in order to assess the total body distribution of free (uncomplexed)^61Cu. The results are shown in FIG. 10, panels A and B. L=liver; K=kidneys; T=tumor; Bl=bladder; I=intestine.

[4] = LNCap xenograft mice, 1 h after injection
[5] = LNCap xenograft mice, 4 h after injection

O=C(O)CC[C@H](NC(=O)N[C@@H](CCCCNC(=O)CCCCCCC(=O)NCCCC[C@@H](NC(=O)[C@@H](Cc1ccccc1)NC(=O)[C@@H](Cc1ccc(O)c(I)c1)NC(=O)CC[C@H](C(=O)O)N1CCN2CCN(CC1)CC(=O)[O][61Cu][O]C(=O)C2)C(=O)O)C(=O)O)C(=O)O [[^61Cu]Cu-NODAGA-PSMA-I&T]
log D(O/PBS pH 7.4) [1]: −2.95±0.08
Biodistribution Adrenal (LNCaP xenografts [2]; 1 hour p.i., LNCaP xenografts): 17.3 ± 3.26 % IA/g
Biodistribution Blood (LNCaP xenografts [2]; 1 hour p.i., LNCaP xenografts): 0.28 ± 0.06 % IA/g
Biodistribution Bone (LNCaP xenografts [2]; 1 hour p.i., LNCaP xenografts): 2.73 ± 0.91 % IA/g
Biodistribution Heart (LNCaP xenografts [2]; 1 hour p.i., LNCaP xenografts): 0.45 ± 0.15 % IA/g
Biodistribution Intestine (LNCaP xenografts [2]; 1 hour p.i., LNCaP xenografts): 2.11 ± 0.78 % IA/g
Biodistribution Kidneys (LNCaP xenografts [2]; 1 hour p.i., LNCaP xenografts): 118 ± 13 % IA/g
Biodistribution LNCaP-tumor (LNCaP xenografts [2]; 1 hour p.i., LNCaP xenografts): 14.0 ± 5.0 % IA/g
Biodistribution Liver (LNCaP xenografts [2]; 1 hour p.i., LNCaP xenografts): 1.02 ± 0.28 % IA/g
Biodistribution Lung (LNCaP xenografts [2]; 1 hour p.i., LNCaP xenografts): 1.69 ± 0.45 % IA/g
Biodistribution Muscle (LNCaP xenografts [2]; 1 hour p.i., LNCaP xenografts): 1.12 ± 0.32 % IA/g
Biodistribution Pancreas (LNCaP xenografts [2]; 1 hour p.i., LNCaP xenografts): 0.97 ± 0.36 % IA/g
Biodistribution Salivary glands (LNCaP xenografts [2]; 1 hour p.i., LNCaP xenografts): 2.01 ± 0.33 % IA/g
Biodistribution Spleen (LNCaP xenografts [2]; 1 hour p.i., LNCaP xenografts): 6.04 ± 1.87 % IA/g
Biodistribution Stomach (LNCaP xenografts [2]; 1 hour p.i., LNCaP xenografts): 1.13 ± 0.20 % IA/g
Ratio Tumor/Blood (LNCaP xenografts [2]; 1 hour p.i., LNCaP xenografts): 55.8 ± 20.0
Ratio Tumor/Kidney (LNCaP xenografts [2]; 1 hour p.i., LNCaP xenografts): 0.13 ± 0.03
Ratio Tumor/Liver (LNCaP xenografts [2]; 1 hour p.i., LNCaP xenografts): 14.9 ± 4.9
Ratio Tumor/Muscles (LNCaP xenografts [2]; 1 hour p.i., LNCaP xenografts): 13.6 ± 3.75
kidney uptake (LNCaP xenografts [2]; injected amount 200 μmol (so in the source)): 96 % IA/g
kidney uptake (LNCaP xenografts [2]; injected amount 400 μmol (so in the source)): 72 % IA/g
kidney uptake (LNCaP xenografts [2]; injected amount 1000 μmol (so in the source)): 34 % IA/g
Biodistribution Adrenal (LNCaP xenografts [2]; 4 hours p.i., LNCaP xenografts): 8.32 ± 2.87 % IA/g
Biodistribution Blood (LNCaP xenografts [2]; 4 hours p.i., LNCaP xenografts): 0.10 ± 0.03 % IA/g
Biodistribution Bone (LNCaP xenografts [2]; 4 hours p.i., LNCaP xenografts): 1.34 ± 0.48 % IA/g
Biodistribution Heart (LNCaP xenografts [2]; 4 hours p.i., LNCaP xenografts): 0.22 ± 0.05 % IA/g
Biodistribution Intestine (LNCaP xenografts [2]; 4 hours p.i., LNCaP xenografts): 1.06 ± 0.50 % IA/g
Biodistribution Kidneys (LNCaP xenografts [2]; 4 hours p.i., LNCaP xenografts): 91 ± 10 % IA/g
Biodistribution LNCaP-tumor (LNCaP xenografts [2]; 4 hours p.i., LNCaP xenografts): 10.7 ± 3.3 % IA/g
Biodistribution Liver (LNCaP xenografts [2]; 4 hours p.i., LNCaP xenografts): 0.72 ± 0.11 % IA/g
Biodistribution Lung (LNCaP xenografts [2]; 4 hours p.i., LNCaP xenografts): 0.74 ± 0.19 % IA/g
Biodistribution Muscle (LNCaP xenografts [2]; 4 hours p.i., LNCaP xenografts): 0.50 ± 0.22 % IA/g
Biodistribution Pancreas (LNCaP xenografts [2]; 4 hours p.i., LNCaP xenografts): 0.45 ± 0.09 % IA/g
Biodistribution Salivary glands (LNCaP xenografts [2]; 4 hours p.i., LNCaP xenografts): 0.52 ± 0.06 % IA/g
Biodistribution Spleen (LNCaP xenografts [2]; 4 hours p.i., LNCaP xenografts): 1.28 ± 0.39 % IA/g
Biodistribution Stomach (LNCaP xenografts [2]; 4 hours p.i., LNCaP xenografts): 0.66 ± 0.15 % IA/g
Ratio Tumor/Blood (LNCaP xenografts [2]; 4 hours p.i., LNCaP xenografts): 109 ± 43
Ratio Tumor/Kidney (LNCaP xenografts [2]; 4 hours p.i., LNCaP xenografts): 0.12 ± 0.03
Ratio Tumor/Liver (LNCaP xenografts [2]; 4 hours p.i., LNCaP xenografts): 15.4 ± 5.7
Ratio Tumor/Muscles (LNCaP xenografts [2]; 4 hours p.i., LNCaP xenografts): 25.4 ± 12.0
tumor uptake (LNCaP xenografts [2]; 4h p.i., LNCaP xenograft mice, comparison with reference radiotracer, p=0.0145): 10.7±3.3 % IA/g
accumulation in tumor and target-positive tissues (LNCaP xenografts [2]; LNCaP xenografts): high accumulation in PSMA-positive (LNCaP) tumor and PSMA-positive tissues
Biodistribution Adrenal (LNCaP xenografts [2]; [4]): 17.3 ± 3.26 % IA/g
Biodistribution Blood (LNCaP xenografts [2]; [4]): 0.28 ± 0.06 % IA/g
Biodistribution Bone (LNCaP xenografts [2]; [4]): 2.73 ± 0.91 % IA/g
Biodistribution Heart (LNCaP xenografts [2]; [4]): 0.45 ± 0.15 % IA/g
Biodistribution Intestine (LNCaP xenografts [2]; [4]): 2.11 ± 0.78 % IA/g
Biodistribution Kidney (LNCaP xenografts [2]; [4]): 118 ± 13 % IA/g
Biodistribution LNCaP-tumor (LNCaP xenografts [2]; [4]): 14.0 ± 5.0 % IA/g
Biodistribution Liver (LNCaP xenografts [2]; [4]): 1.02 ± 0.28 % IA/g
Biodistribution Lung (LNCaP xenografts [2]; [4]): 1.69 ± 0.45 % IA/g
Biodistribution Muscle (LNCaP xenografts [2]; [4]): 1.12 ± 0.32 % IA/g
Biodistribution Pancreas (LNCaP xenografts [2]; [4]): 0.97 ± 0.36 % IA/g
Biodistribution Salivary gland (LNCaP xenografts [2]; [4]): 2.01 ± 0.33 % IA/g
Biodistribution Spleen (LNCaP xenografts [2]; [4]): 6.04 ± 1.87 % IA/g
Biodistribution Stomach (LNCaP xenografts [2]; [4]): 1.13 ± 0.20 % IA/g
Ratio Tumor/Blood (LNCaP xenografts [2]; [4]): 55.8 ± 20.0
Ratio Tumor/Kidney (LNCaP xenografts [2]; [4]): 0.13 ± 0.03
Ratio Tumor/Liver (LNCaP xenografts [2]; [4]): 14.9 ± 4.9
Ratio Tumor/Muscles (LNCaP xenografts [2]; [4]): 13.6 ± 3.75
Biodistribution Adrenal (LNCaP xenografts [2]; [5]): 8.32 ± 2.87 % IA/g
Biodistribution Blood (LNCaP xenografts [2]; [5]): 0.10 ± 0.03 % IA/g
Biodistribution Bone (LNCaP xenografts [2]; [5]): 1.34 ± 0.48 % IA/g
Biodistribution Heart (LNCaP xenografts [2]; [5]): 0.22 ± 0.05 % IA/g
Biodistribution Intestine (LNCaP xenografts [2]; [5]): 1.06 ± 0.50 % IA/g
Biodistribution Kidney (LNCaP xenografts [2]; [5]): 90.9 ± 10.1 % IA/g
Biodistribution LNCaP-tumor (LNCaP xenografts [2]; [5]): 10.7 ± 3.3 % IA/g
Biodistribution Liver (LNCaP xenografts [2]; [5]): 0.72 ± 0.11 % IA/g
Biodistribution Lung (LNCaP xenografts [2]; [5]): 0.74 ± 0.19 % IA/g
Biodistribution Muscle (LNCaP xenografts [2]; [5]): 0.50 ± 0.22 % IA/g
Biodistribution Pancreas (LNCaP xenografts [2]; [5]): 0.45 ± 0.09 % IA/g
Biodistribution Salivary gland (LNCaP xenografts [2]; [5]): 0.52 ± 0.06 % IA/g
Biodistribution Spleen (LNCaP xenografts [2]; [5]): 1.28 ± 0.39 % IA/g
Biodistribution Stomach (LNCaP xenografts [2]; [5]): 0.66 ± 0.15 % IA/g
Ratio Tumor/Blood (LNCaP xenografts [2]; [5]): 109 ± 43
Ratio Tumor/Kidney (LNCaP xenografts [2]; [5]): 0.12 ± 0.03
Ratio Tumor/Liver (LNCaP xenografts [2]; [5]): 15.4 ± 5.7
Ratio Tumor/Muscles (LNCaP xenografts [2]; [5]): 25.4 ± 12.0
distribution on PET/CT images (LNCaP xenografts [3]): accumulated in the tumor, increasing from 15 up to 60 min p.i., and in the kidneys
uptake in PSMA-positive tumors and kidneys in xenografts pre-injected with 2-PMPA (PSMA): significantly lower uptake

Reference: patent publication US20240173440A1, “HIGH PURITY COPPER RADIOPHARMACEUTICAL COMPOSITIONS AND DIAGNOSTIC AND THERAPEUTIC USES THEREOF” (Nuclidium AG, priority 2022, published 2024)
